Literature values in US20180311201A1, “ORAL PHARMACEUTICAL COMPOSITION COMPRISING OTILONIUM BROMIDE AND SIMETHICONE WITH CERTAIN BULK DENSITY AND IMPROVED DISSOLUTION CHARACTERISTICS” (priority 2015, published 2018).

CCCCCCCCOc1ccccc1C(=O)Nc1ccc(C(=O)OCC[N+](C)(CC)CC)cc1.[Br-] [Otilonium bromide, N,N-Diethyl-N-methyl-2-(4-[2-(octyloxy)benzamido]benzoyloxy)ethanaminium bromide]
Solubility in dimethyl sulfoxide (dimethyl sulfoxide): > 25 mg/mL
Solubility in ethanol (ethanol): soluble
Solubility in water (water): 12 mg/mL
